The values that follow come from patent EP3227262B1, “SULFIDE ALKYL AND PYRIDYL REVERSE SULFONAMIDE COMPOUNDS FOR HBV TREATMENT” (Novira Therapeutics Inc., priority 2014, dated 2016).

Where only a bound is given, the exact number is not on record here.

Experiment [1] deals with HBV. The experiment in a line: HBV replication inhibition assay (encapsidated HBV DNA in supernatant, bDNA QuantiGene). It is filed as cell-based. Conditions: Hepatitis B virus, 144 h, HepG2.2.15 cells, supernatant at day 6, read-out: Extra HBV DNA.
Experiment [2] has as its system HBV. The experiment in a line: Inhibition of HBV replication dot-blot assay in HBV-producing hepatoma cell line. The class given is cell-based. The conditions noted are these: Hepatitis B virus, 144 h; activity in Dot-Blot assay; HepG2-2.2.15 cells; reduction in HBV DNA levels, six days. Put shortly: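 HepG2-2.2.15 confluent monolayers were exposed to a compound dilution series for six days, with medium and compound renewed at day 3. HBV DNA in supernatant/lysate was quantified by dot-blot hybridization, and EC50 was derived from dose-response reduction in HBV DNA.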

`O=C(Nc1cc(F)c(F)c(F)c1)c1ccc(F)c(SC2CCC(O)CC2)c1` (mixture of isomers) [Compound 10, (cis/trans)-4-Fluoro-3-((4-hydroxycyclohexyl)thio)-N-(3,4,5-trifluorophenyl)benzamide]: the EC50 in the experiment with HBV [1] was 0.09 µM; with HBV [2] it was less than 10 µM. For `O=C(Nc1ccc(F)c(Cl)c1)c1ccc(F)c(SC2CCC(O)CC2)c1` (mixture of isomers) [Compound 24, (cis/trans)-N-(3-Chloro-4-fluorophenyl)-4-fluoro-3-((4-hydroxycyclohexyl)thio)benzamide], the EC50 with HBV [1] is 0.042 µM; in the experiment with HBV [2], less than 10 µM. Turning to `O=C(Nc1cc(F)c(F)c(F)c1)c1ccc(F)c(SC2CCC(C(=O)O)CC2)c1` (mixture of isomers) [Compound 62, (cis/trans)-4-((2-Fluoro-5-((3,4,5-trifluorophenyl)carbamoyl)phenyl)thio)cyclohexanecarboxylic acid], the EC50 in the experiment on HBV [1] was 0.71 µM; in the experiment on HBV [2], less than 10 µM. `O=C(Nc1ccc(F)c(F)c1)c1ccc(F)c(SC2CCC(C(=O)O)CC2)c1` (mixture of isomers) [Compound 63, (cis/trans)-4-((S-((3,4-Difluorophenyl)carbamoyl)-2-fluorophenyl)thio)cyclohexanecarboxylic acid]: the EC50 is 1.6 µM in the experiment with HBV [1] and less than 10 µM in the experiment on HBV [2]. In the case of `O=C1CCCCC(Sc2cccc(C(=O)Nc3ccc(F)c(Cl)c3)c2)C1` (racemic) [Compound 38, (±)-N-(3-Chloro-4-fluorophenyl)-3-((3-oxocycloheptyl)thio)benzamide], the EC50 in the experiment on HBV [1] worked out at 1.27 µM. Still for that read-out and setting: as for `O=C(Nc1ccc(F)c(Cl)c1)c1cccc(S[C@H]2CCCC[C@@H](O)C2)c1` (racemic) [Compound 39A, (±)-N-(3-Chloro-4-fluorophenyl)-3-(((1S,3R)-3-hydroxycycloheptyl)thio)benzamide], the figure is 1.29 µM; as for `O=C(Nc1ccc(F)c(Cl)c1)c1cccc(S[C@@H]2CCCC[C@@H](O)C2)c1` (racemic) [Compound 39B, (±)-N-(3-Chloro-4-fluorophenyl)-3-(((1R,3R)-3-hydroxycycloheptyl)thio)benzamide], 1.29 µM; as for `O=C(Nc1ccc(F)c(Cl)c1)c1cccc(SCCCO)c1` [Compound 40, N-(3-Chloro-4-fluorophenyl)-3-((3-hydroxypropyl)thio)benzamide], 0.76 µM. As for `O=C(Nc1ccc(F)c(Cl)c1)c1cc(NS(=O)(=O)C2CC2)ccn1` [Compound 126, N-(3-Chloro-4-fluorophenyl)-4-(cyclopropanesulfonamido)picolinamide], the EC50 with HBV [1] was determined as 1 µM. Molecule `Cc1cc(NC(=O)c2ccc(F)c(NS(=O)(=O)c3ccn(C)n3)c2)ccc1F` [Compound 197, 4-fluoro-N-(4-fluoro-3-methylphenyl)-3-(1-methyl-1H-pyrazole-3-sulfonamido)benzamide] had an EC50 with HBV [2] of less than 10 µM.

In the experiment on HBV [2], `COCCS(=O)(=O)Nc1cccc(C(=O)Nc2ccc(F)c(Cl)c2)c1` [Compound 198, N-(3-chloro-4-fluorophenyl)-3-(2-methoxyethylsulfonamido)benzamide] came in with an EC50 of less than 10 µM.

Consider `O=C(Nc1ccc(F)c(Cl)c1)c1cccc(NS(=O)(=O)c2cccs2)c1` [Compound 199, N-(3-chloro-4-fluorophenyl)-3-(thiophene-2-sulfonamido)benzamide], for which, in the experiment on HBV [2], the EC50 was less than 10 µM. Same read-out and setting: as for `O=C(Nc1ccc(F)c(Cl)c1)c1cccc(NS(=O)(=O)c2cn[nH]c2)c1` [Compound 200, N-(3-chloro-4-fluorophenyl)-3-(1H-pyrazole-4-sulfonamido)benzamide], the figure is less than 10 µM; as for `Cc1n[nH]c(C)c1S(=O)(=O)Nc1cccc(C(=O)Nc2ccc(F)c(Cl)c2)c1` [Compound 201, N-(3-chloro-4-fluorophenyl)-3-(3,5-dimethyl-1H-pyrazole-4-sulfonamido)benzamide], less than 10 µM; as for `O=C(Nc1ccc(F)c(Cl)c1)c1cccc(NS(=O)(=O)N2CCC(OCc3ccccc3)CC2)c1` [Compound 207, 3-(4-(benzyloxy)piperidine-1-sulfonamido)-N-(3-chloro-4-fluorophenyl)benzamide], less than 10 µM.
